# Experiments:
# [1] = biological target: human VEGF receptor (VEGFR-2) (Homo sapiens (Human), UniProt P35968); experiment: VEGFR2 Kinase Assay (Enzymic VEGFR2); type: biochemical; settings: His-VEGFR-2 cytoplasmic domain, 3.6 µM ATP
# Method: VEGFR2 Kinase Assay The cytoplasmic domain of the human VEGF receptor (VEGFR-2) was expressed as a Histidine-tagged fusion protein following infection of insect cells using an His engineered baculovirus. […] Kinase assays were performed in 96 well microtiter plates that were coated overnight with 30 µg of poly-Glu-[…]:1) in 10 mM Phosphate Buffered Saline (PBS), pH 7.2-7.4. The plates were incubated with 1% BSA and then washed four times with PBS prior to starting the reaction. […] Reactions were initiated by the addition 0.5 ng of purified protein. Following a ten minute incubation at 25° C., the reactions were washed four times with PBS containing 0.05% Tween-20. 100 µl of a monoclonal anti-phosphotyrosine antibody-peroxidase conjugate was diluted 1:10000 in PBS-Tween-20 and added to the wells for 30 minutes. Following four washes with PBS-Tween-20, 100 µl of 0-phenylenediamine Dihydrochloride in Phosphate-citrate buffer, containing urea hydrogen peroxide, was added to the wells for 7 minutes as a colorimetric substrate for the peroxidase. […] IC50 values for compound inhibition were calculated directly from graphs of optical density (arbitrary units) versus compound concentration following subtraction of blank values.
# VEGFR2 = VEGFR2 (Homo sapiens (Human), UniProt P35968); experiment: VEGF Stimulated Ca++ Signal In Vitro (Cellular VEGFR2, FLIPR); type: cell-based; settings: HUVEC, VEGF stimulation (5 ng/mL), intracellular calcium
# PDGFRβ = PDGFRβ (Homo sapiens (Human), UniProt P09619); experiment: Enzymic PDGFRβ; type: biochemical
# Chain of PDGFRβ (P09619 33-1106, species assumed): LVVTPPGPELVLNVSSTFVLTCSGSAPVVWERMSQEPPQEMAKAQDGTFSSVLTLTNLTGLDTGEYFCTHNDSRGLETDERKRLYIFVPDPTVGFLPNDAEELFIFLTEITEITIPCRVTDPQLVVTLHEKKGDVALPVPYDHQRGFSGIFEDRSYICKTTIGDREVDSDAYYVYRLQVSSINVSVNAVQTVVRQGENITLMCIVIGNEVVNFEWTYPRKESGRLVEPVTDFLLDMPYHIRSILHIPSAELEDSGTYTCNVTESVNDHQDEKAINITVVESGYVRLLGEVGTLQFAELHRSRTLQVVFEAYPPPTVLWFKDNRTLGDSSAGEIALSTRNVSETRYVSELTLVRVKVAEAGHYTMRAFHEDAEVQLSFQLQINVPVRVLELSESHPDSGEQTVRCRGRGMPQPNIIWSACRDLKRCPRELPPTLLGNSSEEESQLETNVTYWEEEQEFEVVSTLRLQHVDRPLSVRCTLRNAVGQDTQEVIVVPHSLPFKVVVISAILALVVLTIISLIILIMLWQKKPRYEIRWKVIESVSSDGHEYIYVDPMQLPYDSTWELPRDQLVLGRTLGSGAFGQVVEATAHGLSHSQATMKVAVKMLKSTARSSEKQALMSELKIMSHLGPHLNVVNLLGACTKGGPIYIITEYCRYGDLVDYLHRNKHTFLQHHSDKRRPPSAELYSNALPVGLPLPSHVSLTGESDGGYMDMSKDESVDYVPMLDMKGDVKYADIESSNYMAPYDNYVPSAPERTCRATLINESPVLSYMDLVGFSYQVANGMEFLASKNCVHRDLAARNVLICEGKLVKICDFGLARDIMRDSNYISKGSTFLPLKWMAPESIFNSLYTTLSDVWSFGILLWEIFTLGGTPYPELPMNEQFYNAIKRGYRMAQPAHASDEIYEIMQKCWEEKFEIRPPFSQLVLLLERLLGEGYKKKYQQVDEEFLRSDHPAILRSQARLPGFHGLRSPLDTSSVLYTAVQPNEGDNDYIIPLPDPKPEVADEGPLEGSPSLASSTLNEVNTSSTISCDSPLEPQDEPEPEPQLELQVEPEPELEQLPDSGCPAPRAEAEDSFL
# Chain of human VEGF receptor (VEGFR-2) (P35968 786-1356): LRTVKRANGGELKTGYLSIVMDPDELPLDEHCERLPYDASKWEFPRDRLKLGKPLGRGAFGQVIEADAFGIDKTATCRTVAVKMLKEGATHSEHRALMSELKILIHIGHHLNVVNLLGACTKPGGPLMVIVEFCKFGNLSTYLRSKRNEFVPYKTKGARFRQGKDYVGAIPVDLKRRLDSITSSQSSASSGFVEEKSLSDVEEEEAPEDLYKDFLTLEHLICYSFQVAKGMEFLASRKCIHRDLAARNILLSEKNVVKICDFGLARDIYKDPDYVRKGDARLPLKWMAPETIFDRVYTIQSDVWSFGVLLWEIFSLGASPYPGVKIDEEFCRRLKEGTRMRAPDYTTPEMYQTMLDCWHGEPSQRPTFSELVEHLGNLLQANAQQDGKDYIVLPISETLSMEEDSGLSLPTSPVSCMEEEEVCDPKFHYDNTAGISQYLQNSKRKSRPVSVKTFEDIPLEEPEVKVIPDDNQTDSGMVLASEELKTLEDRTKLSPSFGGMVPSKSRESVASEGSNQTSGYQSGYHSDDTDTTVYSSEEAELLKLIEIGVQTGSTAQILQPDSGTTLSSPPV
# Chain of VEGFR2 (P35968 20-1356): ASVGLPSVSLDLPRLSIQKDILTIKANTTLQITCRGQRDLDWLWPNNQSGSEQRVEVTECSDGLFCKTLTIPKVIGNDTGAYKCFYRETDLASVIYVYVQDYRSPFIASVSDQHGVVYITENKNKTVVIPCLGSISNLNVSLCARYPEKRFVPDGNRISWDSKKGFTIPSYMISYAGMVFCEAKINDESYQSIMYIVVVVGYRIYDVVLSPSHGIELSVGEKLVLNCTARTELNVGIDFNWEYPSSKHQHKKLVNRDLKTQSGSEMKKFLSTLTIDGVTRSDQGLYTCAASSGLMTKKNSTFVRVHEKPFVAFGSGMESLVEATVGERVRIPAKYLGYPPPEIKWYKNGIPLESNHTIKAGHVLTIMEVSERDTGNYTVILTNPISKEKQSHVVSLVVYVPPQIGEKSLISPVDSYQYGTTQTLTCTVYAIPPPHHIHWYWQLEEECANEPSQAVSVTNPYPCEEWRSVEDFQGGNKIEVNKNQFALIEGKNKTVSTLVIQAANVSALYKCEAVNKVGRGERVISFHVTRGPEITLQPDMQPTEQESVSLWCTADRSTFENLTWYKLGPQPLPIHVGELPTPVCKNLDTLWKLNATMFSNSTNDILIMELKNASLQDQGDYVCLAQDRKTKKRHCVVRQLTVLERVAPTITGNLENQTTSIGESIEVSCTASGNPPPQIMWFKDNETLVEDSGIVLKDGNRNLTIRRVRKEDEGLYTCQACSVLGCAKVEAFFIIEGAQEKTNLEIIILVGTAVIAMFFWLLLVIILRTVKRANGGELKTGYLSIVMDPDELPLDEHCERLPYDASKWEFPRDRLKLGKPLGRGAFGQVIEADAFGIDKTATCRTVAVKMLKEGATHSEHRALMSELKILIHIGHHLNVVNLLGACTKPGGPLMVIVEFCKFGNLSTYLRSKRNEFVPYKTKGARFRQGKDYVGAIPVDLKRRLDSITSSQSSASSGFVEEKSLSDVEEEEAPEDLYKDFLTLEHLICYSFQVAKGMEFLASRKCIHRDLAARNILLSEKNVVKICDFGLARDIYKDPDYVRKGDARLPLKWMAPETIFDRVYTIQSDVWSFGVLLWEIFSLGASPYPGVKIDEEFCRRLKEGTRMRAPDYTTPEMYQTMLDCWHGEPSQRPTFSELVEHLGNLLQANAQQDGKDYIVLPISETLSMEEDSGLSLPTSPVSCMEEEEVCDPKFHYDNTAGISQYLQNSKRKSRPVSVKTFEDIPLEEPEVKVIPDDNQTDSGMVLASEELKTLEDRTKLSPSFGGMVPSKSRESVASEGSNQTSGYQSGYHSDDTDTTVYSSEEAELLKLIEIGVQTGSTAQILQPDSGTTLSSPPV
Compound,IC50 [1] [nM],IC50 (VEGFR2) [nM],IC50 (PDGFRβ) [nM]
"COC(=O)[C@@H]1C[C@@H](O)CN1CCCNC(=O)c1cc2nccc(Oc3ccc(NC(=O)Nc4cc(C)ccc4F)cc3)c2s1 (relative stereo) [Example 17, methyl rel-(2R,4S)-1-{3-[({7-[4-({[(2-fluoro-5-methylphenyl)amino]carbonyl}amino)phenoxy]thieno[3,2-b]pyridin-2-yl}carbonyl)amino]propyl}-4-hydroxypyrrolidine-2-carboxylate]",4,–,–
"COC(=O)c1cc2nccc(Oc3ccc(NC(=O)Nc4cc(C)ccc4F)cc3)c2s1 [Compound F1, Methyl 7-[4-({[(2-fluoro-5-methylphenyl)amino]carbonyl}amino)phenoxy]thieno[3,2-b]pyridine-2-carboxylate]",18,2,–
"COC(=O)c1cc2nccc(Oc3cccc(NC(=O)Nc4cc(C)ccc4F)c3)c2s1 [Compound F3, Methyl 7-[3-({[(2-fluoro-5-methylphenyl)amino]carbonyl}amino)phenoxy]thieno[3,2-b]pyridine-2-carboxylate]",21,35,–
"COC(=O)c1cc2nccc(-c3ccc(NC(=O)Nc4cc(C)ccc4F)cc3)c2s1 [Compound F4, Methyl 7-[4-({[(2-fluoro-5-methylphenyl)amino]carbonyl}amino)phenyl]thieno[3,2-b]pyridine-2-carboxylate]",10000,10000,–
"Cc1ccc(F)c(NC(=O)Nc2ccc(-c3ccnc4cc(C(=O)O)sc34)cc2)c1 [Compound F5, 7-[4-({[(2-fluoro-5-methylphenyl)amino]carbonyl}amino)phenyl]thieno[3,2-b]pyridine-2-carboxylic acid]",10000,10000,–
"Cc1ccc(F)c(NC(=O)Nc2ccc(Oc3ccnc4cc(C(=O)NCCC(=O)O)sc34)cc2)c1 [Compound F6, 3-[({7-[4-({[(2-fluoro-5-methylphenyl)amino]carbonyl}amino)phenoxy]thieno[3,2-b]pyridin-2-yl}carbonyl)amino]propanoic acid]",11,–,–
"Cc1ccc(F)c(NC(=O)Nc2ccc(Oc3ccnc4cc(C(=O)NCCC(=O)O)sc34)cc2F)c1 [Compound F7, 3-[({7-[3-fluoro-4-({[(2-fluoro-5-methylphenyl)amino]carbonyl}amino)phenoxy]thieno[3,2-b]pyridin-2-yl}carbonyl)amino]propanoic acid]",10,–,–
"Cc1ccc(F)c(NC(=O)Nc2ccc(Oc3ccnc4cc(C(=O)O)sc34)cc2F)c1 [Compound F8, 7-[3-fluoro-4-({[(2-fluoro-5-methylphenyl)amino]carbonyl}amino)phenoxy]thieno[3,2-b]pyridine-2-carboxylic acid]",11,–,–
"COC(=O)C1CCCN1CCCNC(=O)c1cc2nccc(Oc3ccc(NC(=O)Nc4cc(C)ccc4F)c(F)c3)c2s1 (stereo not shown) [Example 42, methyl 1-{3-[({7-[3-fluoro-4-({[(2-fluoro-5-methylphenyl)amino]carbonyl}amino)phenoxy]thieno[3,2-b]pyridin-2-yl}carbonyl)amino]propyl}pyrrolidine-2-carboxylate]",6,4,–
"Cc1ccc(F)c(NC(=O)Nc2ccc(Oc3ccnc4cc(C(=O)NCCCN5CCCC5)sc34)cc2F)c1 [Example 43, 7-[3-fluoro-4-({[(2-fluoro-5-methylphenyl)amino]carbonyl}amino)phenoxy]-N-(3-pyrrolidin-1-ylpropyl)thieno[3,2-b]pyridine-2-carboxamide]",3,6,–
"Cc1ccc(F)c(NC(=O)Nc2ccc(Oc3ccnc4cc(C(=O)NCCCNC(=O)OC(C)(C)C)sc34)cc2F)c1 [Example 44, tert-butyl {3-[({7-[3-fluoro-4-({[(2-fluoro-5-methylphenyl)amino]carbonyl}amino)phenoxy]thieno[3,2-b]pyridin-2-yl}carbonyl)amino]propyl}carbamate]",11,16,–
"Cc1ccc(F)c(NC(=O)Nc2ccc(Oc3ccnc4cc(C(=O)NCCCN)sc34)cc2F)c1 [Example 45, N-(3-aminopropyl)-7-[3-fluoro-4-({[(2-fluoro-5-methylphenyl)amino]carbonyl}amino)phenoxy]thieno[3,2-b]pyridine-2-carboxamide]",7,10,–
"Cc1ccc(F)c(NC(=O)Nc2ccc(Oc3ccnc4cc(C(=O)N[C@@H](CCC(=O)OC(C)(C)C)C(=O)O)sc34)cc2F)c1 [Example 48, (2S)-5-tert-butoxy-2-[({7-[3-fluoro-4-({[(2-fluoro-5-methylphenyl)amino]carbonyl}amino)phenoxy]thieno[3,2-b]pyridin-2-yl}carbonyl)amino]-5-oxopentanoic acid]",7,–,–
"Cc1ccc(F)c(NC(=O)Nc2ccc(Oc3ccnc4cc(C(=O)NCCCO)sc34)cc2F)c1 [Example 53, 7-[3-fluoro-4-({[(2-fluoro-5-methylphenyl)amino]carbonyl}amino)phenoxy]-N-(3-hydroxypropyl)thieno[3,2-b]pyridine-2-carboxamide]",12,–,–
"COC(=O)CC[C@H](NC(=O)c1cc2nccc(Oc3ccc(NC(=O)Nc4cc(C)ccc4F)c(F)c3)c2s1)C(=O)OC [Example 54, dimethyl (2S)-2-[({7-[3-fluoro-4-({[(2-fluoro-5-methylphenyl)amino]carbonyl}amino)phenoxy]thieno[3,2-b]pyridin-2-yl}carbonyl)amino]pentanedioate]",34,4,–
"Cc1ccc(F)c(NC(=O)Nc2ccc(Oc3ccnc4cc(C(=O)N=S(C)(C)=O)sc34)cc2F)c1 [Example 58, N-[dimethyl(oxido)-lambda˜4˜-sulfanylidene]-7-[3-fluoro-4-({[(2-fluoro-5-methylphenyl)amino]carbonyl}amino)phenoxy]thieno[3,2-b]pyridine-2-carboxamide]",3,–,–
"Cc1ccc(F)c(NC(=O)Nc2ccc(Oc3ccnc4cc(C(=O)N=S(C)(C)=O)sc34)cc2)c1 [Example 61, N-[dimethyl(oxido)-lambda˜4˜-sulfanylidene]-7-[4-({[(2-fluoro-5-methylphenyl)amino]carbonyl}amino)phenoxy]thieno[3,2-b]pyridine-2-carboxamide]",2,–,–
"COC(=O)c1cc2nccc(Oc3cccc(NC(=O)c4occc4C)c3)c2s1 [Example 71, Methyl 7-{3-[(3-methyl-2-furoyl)amino]phenoxy}thieno[3,2-b]pyridine-2-carboxylate]",24,–,169
"CCNC(=O)c1cc2nccc(Oc3cccc(NC(=O)c4occc4C)c3)c2s1 [Example 73, N-ethyl-7-{3-[(3-methyl-2-furoyl)amino]phenoxy}thieno[3,2-b]pyridine-2-carboxamide]",9,–,191
"CCN(CC)C(=O)c1cc2nccc(Oc3cccc(NC(=O)c4occc4C)c3)c2s1 [Example 74, N,N-diethyl-7-{3-[(3-methyl-2-furoyl)amino]phenoxy}thieno[3,2-b]pyridine-2-carboxamide]",27,–,424
"Cc1ccoc1C(=O)Nc1cccc(Oc2ccnc3cc(C(=O)NCCCO)sc23)c1 [Example 76, N-(3-hydroxypropyl)-7-{3-[(3-methyl-2-furoyl)amino]phenoxy}thieno[3,2-b]pyridine-2-carboxamide]",11,–,146
"Cc1ccoc1C(=O)Nc1cccc(Oc2ccnc3cc(C(=O)NCCO)sc23)c1 [Example 77, N-(2-hydroxyethyl)-7-{3-[(3-methyl-2-furoyl)amino]phenoxy}thieno[3,2-b]pyridine-2-carboxamide]",17,–,392
"Cc1ccoc1C(=O)Nc1cccc(Oc2ccnc3cc(C(=O)NCCc4nn[nH]n4)sc23)c1 [Example 78, 7-{3-[(3-methyl-2-furoyl)amino]phenoxy}-N-[2-(2H-tetrazol-5-yl)ethyl]thieno[3,2-b]pyridine-2-carboxamide]",14,–,323
"Cc1ccoc1C(=O)Nc1cccc(Oc2ccnc3cc(C(=O)OCCCO)sc23)c1 [Example 79, 3-hydroxypropyl 7-{3-[(3-methyl-2-furoyl)amino]phenoxy}thieno[3,2-b]pyridine-2-carboxylate]",9,–,146
"Cc1ccoc1C(=O)Nc1cccc(Oc2ccnc3cc(C(=O)OCCO)sc23)c1 [Example 80, 2-hydroxyethyl 7-{3-[(3-methyl-2-furoyl)amino]phenoxy}thieno[3,2-b]pyridine-2-carboxylate]",17,–,212
"COCCOC(=O)c1cc2nccc(Oc3cccc(NC(=O)c4occc4C)c3)c2s1 [Example 81, 2-methoxyethyl 7-{3-[(3-methyl-2-furoyl)amino]phenoxy}thieno[3,2-b]pyridine-2-carboxylate]",19,–,273
"COC(=O)CNCCCNC(=O)c1cc2nccc(Oc3cccc(NC(=O)c4occc4C)c3)c2s1 [Example 82, Methyl [(3-{[(7-{3-[(3-methyl-2-furoyl)amino]phenoxy}thieno[3,2-b]pyridin-2-yl)carbonyl]amino}propyl)amino]acetate]",11,–,238

# Reference: patent US9340555B2, “Compounds as tyrosine kinase modulators” (Allergan, Inc., priority 2009, dated 2016)
